In publication PMC6698794, “Catalytic Knockdown of miR-21 by Artificial Ribonuclease: Biological Performance in Tumor Model” (Frontiers in Pharmacology, 2019):
Values joined by “and” are separate entries in the source; they are usually repeats but may differ in a detail not shown here. Equal entries are not always repeated.

Tests used:
miR-21 = assay: Cleavage of 5′-[32P]-labeled miR-21 by miR-21-miRNase and/or RNase H in multiple turnover conditions; format: biochemical; details: for Level of cleavage of miR-21 by miRNase alone: 5- or 10-fold excess of target; for Level of cleavage of miR-21 by miRNase alone / τ/2, half-life time of miR-21: miRNase 5 µM, 37°C
Method: Unlabeled miR-21 (10 µM, 25 µM, or 50 µM) and 10^5 cpm (Cherenkov’s counting) of [^32P]-miR-21 was incubated at 37°C with either miR-21-miRNase (5 µM) or RNase H (100 U/ml, plus 5 µM of either h-ODN or miR-21-miRNase) in buffer (20 mM Tris-HCl, pH 7.8, 40 mM KCl, 8 mM MgCl2, 1 mM DTT). Reactions were quenched by precipitation of RNA with 2% LiClO4 in acetone, and RNA cleavage products quantified in dried gels as described previously ([Patutina et al., 2017a]) using Molecular Imager FX and Quantity One software.
Figure 4 Cleavage of 5’-[^32P]-labeled miR-21 by miR-21-miRNase and/or RNase H. Autoradiographs of 18% polyacrylamide/8 M urea gel, showing the patterns of cleavage of miR-21 at its 2- (A), 5- (C), and 10-fold (E) molar excess over miR-21-miRNase or h-ODN. […] Duplexes formed by 5′-[^32P]-miR-21 (10, 25, and 50 µM) and h-ODN or miRNase (5 µM) were incubated at 37°C for 24–72 h. Lanes Im and T1: imidazole ladder and partial RNA digestion with RNase T1, respectively; “control”: RNA was incubated in the absence of oligonucleotide or conjugate and in the presence of RNase H (100 U/ml). Diagrams (B), (D), and (F) show time dependency of cleavage of miR-21 by miR-21-miRNase alone, by a synergetic action of miR-21-miRNase and RNase H, or by RNase H (100 U/ml) alone when miR-21 was in a complex with h-ODN at 2-, 5- and 10-fold molar excess of miR-21 over miR-21-miRNase or h-ODN, respectively. (G) Positions of miR-21 cleavage induced by miR-21-miRNase (red arrows), RNase H in the duplex with h-ODN (black arrows), and by combination of miR-21-miRNase and RNase H. (H) The hypothetical representation of miR-21 cleavage by a combination of miRNase and RNase H.

RLS40 lymphosarcoma = assay: Tumor transplantation assay: RLS40 cells treated ex vivo, then inoculated intramuscularly; format: in vivo, CBA mice; details: for Tumor doubling time, DT: DT = (t − t0) × ln 2/(ln V − ln V0)
Method: RLS40 ascites were taken from CBA mice intraperitoneally injected with tumor cells (2 × 10^6 in 0.2 ml buffered saline) into their abdominal cavities. RLS40 cells, isolated from ascites fluid by filtration through LSM were divided into seven portions: 1) untreated cells; 2) the cells incubated with Lipofectamine; the cells transfected with 1 µM of 3) h-ODN, 4) 2′-OMe, 5) Inh, 6) miR-21-miRNase, or 7) luc-POC each. After 4 h of transfection, cell suspensions (0.1 ml, 2 × 10^6 cells) were intramuscularly inoculated into the right lower limb of CBA mice for solid tumor development. As soon as tumors began to be palpable, the tumor volumes were measured every 2–3 days using calipers. Tumor volumes were calculated as V = (π/6 × length × width × height). Hepatic index was estimated as (liver weight/mouse weight) × 100% and as 5.0% for healthy CBA mice. Tumor doubling time (DT) was estimated as DT = (t − t0) × ln 2/(ln V − ln V0), where (t − t0) indicates the length of time between two measurements of tumor size and V0 and V denote the tumor volume at two points of the measurement ([Ozono et al., 2004]).
Figure 3 Antitumor effect of miR-21-specific miRNase. (A) Retardation of RLS40 growth in vivo after treatment of RLS40 cells with antisense oligonucleotides, control conjugate (luc-POC), or miR-21-miRNase. (B) Tumor volume on day 19 after RLS40 transplantation. Mice were injected with RLS40 cells either without any treatment (w/t) or treated with Lipofectamine (LF), commercial miR-21 inhibitor at concentration 0.1 µM (Inh 0.1, recommended) and 1 µM (Inh 1, in accordance to concentration of miRNase used in the study), control conjugate (luc-POC, 1 µM), hairpin 2′OMe oligonucleotide (2′-OMe, 1 µM), hairpin antisense oligonucleotide (h-ODN, 1 µM) or miR-21-specific miRNase (miR-21-miRNase, 1 µM). Data were statistically analyzed using two-way ANOVA with post hoc Tukey test. Data are presented as mean ± s.e. p-value indicates a statistically reliable difference. (C) Doubling time of RLS40 tumors after treatment with oligonucleotides and conjugates. TEXT PRINTED IN THE PICTURE: (C) untreated: DT, days: 2,45±0,49 | (C) LF: DT, days: 2,48±0,35 | (C) Inh 0.1: DT, days: 2,56±0,59 | (C) Inh 1: DT, days: 13,90±0,46 | (C) 2’-OMe: DT, days: 3,17±1,45 | (C) luc-POC: DT, days: 2,40±0,45 | (C) h-ODN: DT, days: 3,00±1,83 | (C) miR-21-miRNase: DT, days: 12,77±0,34

[1] = cells treated with 1 µM before transplantation

Q: “h-ODN: miR-21-targeted hairpin deoxyribooligonucleotide AGTCTGATAAGCTACAAGTCAGCGAAAGCTGACTTG, unconjugated with the peptide (DNA, backbone and methylation of C not given here; hairpin at 3' end, unconjugated)” was tested. Which “Total extent of miR-21 cleavage in heteroduplex with h-ODN by RNase H alone” value (miR-21; RNase H 100 U/ml, h-ODN 5 µM, 2-fold excess of miR-21, plateau by 30 min) did it give?
A: Its value is 45%.

Q: And the “Extent of miR-21 cleavage in heteroduplex with h-ODN by RNase H alone” value (miR-21; RNase H 100 U/ml, h-ODN 5 µM, 5-fold excess of miR-21)?
A: Its value is “about 10%”.

Q: What about the “Extent of miR-21 cleavage in heteroduplex with h-ODN by RNase H alone” value (miR-21; RNase H 100 U/ml, h-ODN 5 µM, 10-fold excess of miR-21) of the same substance?
A: Its value is about 5%.

Q: What about the “Retardation of tumor growth, mean tumor volume times less than in the control group” value (RLS40 lymphosarcoma; cells transfected once with 1 µM for 4 h, 2 × 10^6 cells i.m. into CBA mice, day 19) of the same substance?
A: Its value is “about 2 fold”.

Q: And the “Tumor doubling time against w/t (in words)” value (RLS40 lymphosarcoma; [1])?
A: The value was “did not show a statistically significant difference”.

Q: And the “Tumor doubling time, DT” value (RLS40 lymphosarcoma; [1])?
A: The value was 3,00±1,83 days.

Q: What does the source list for “acetyl-[(LeuArg)2Gly]2-aminohexyl-AGTCTGATAAGCTACAAGTCAGCGAAAGCTGACTTG [miR-21-miRNase, peptide acetyl-[(LeuArg)2Gly]2 conjugated through aminohexyl linker to 5′-end of miR-21-targeted hairpin oligodeoxyribonucleotide]”?
A: Factor by which RNase H elevated cleavage of miR-21 (from τ/2) (miR-21; 2-fold excess of miR-21): 14.9 times; Factor by which RNase H enhanced the catalytic turnover (miR-21; 2-fold excess of miR-21): 15.6 times; Factor by which RNase H elevated cleavage of miR-21 (from τ/2) (miR-21; 5-fold excess of miR-21): 3.0 times; Factor by which RNase H enhanced the catalytic turnover (miR-21; 5-fold excess of miR-21): 7.0 times; Factor by which RNase H elevated cleavage of miR-21 (from τ/2) (miR-21; 10-fold excess of miR-21): 2.4 times; Factor by which RNase H enhanced the catalytic turnover (miR-21; 10-fold excess of miR-21): 4.6 times; Incubation time to complete (∼100%) RNA degradation (miR-21; miR-21-miRNase 5 µM with RNase H 100 U/ml, 2-fold excess of miR-21): 8 h; Incubation time to complete RNA degradation (miR-21; miR-21-miRNase 5 µM with RNase H 100 U/ml, 5-fold excess of miR-21): 24 h; Incubation time to complete RNA degradation (miR-21; miR-21-miRNase 5 µM with RNase H 100 U/ml, 10-fold excess of miR-21): ≤ 48 h; Level of cleavage of miR-21 by miRNase alone (miR-21; over 24 h, irrespective of 2-): 65–68%; Level of cleavage of miR-21 by miRNase alone (miR-21; over 72 h, 2-): 90%; τ/2, half-life time of miR-21 (miR-21; with RNase H 100 U/ml, miR-21 10 µM (2-fold RNA excess), pH 7.8): 0.7 ± 0.2 h; τ/2, half-life time of miR-21 (miR-21; with RNase H 100 U/ml, miR-21 25 µM (5-fold RNA excess), pH 7.8): 5.4 ± 0.4 h; τ/2, half-life time of miR-21 (miR-21; with RNase H 100 U/ml, miR-21 50 µM (10-fold RNA excess), pH 7.8): 4.7 ± 0.4 h; τ/2, half-life time of miR-21 (miR-21; without RNase H, miR-21 10 µM (2-fold RNA excess), Tris-HCl pH 7.8, 40 mM KCl, 8 mM MgCl2, 1 mM DTT, time for 50% cleavage): 10.4 ± 0.5 h; τ/2, half-life time of miR-21 (miR-21; without RNase H, miR-21 25 µM (5-fold RNA excess), pH 7.8): 16.2 ± 1.5 h; τ/2, half-life time of miR-21 (miR-21; without RNase H, miR-21 50 µM (10-fold RNA excess), pH 7.8): 11.04 ± 0.8 h; Increase of tumor doubling time over untreated control (w/t) (RLS40 lymphosarcoma; [1]): > 5 fold; Tumor doubling time, DT (RLS40 lymphosarcoma; [1]): 12,77±0,34 days and 12.77 days
